Reference: patent US6894075B2, “4′-demethyl-4′-O-substituted-1-deoxypodophyllotoxin derivative and geometric isomer thereof, process for the preparation thereof and anti-cancer composition comprising the same” (priority 2000, dated 2005)
Values joined by “and” are separate entries in the source; they are usually repeats but may differ in a detail not shown here. Equal entries are not always repeated.

What was measured:
[1] = Weight change in the period of drug administration; format: in vivo, mouse; conditions: for Weight of mouse, Day 1: Day 1 from the cancer cell transplantation; for Weight of mouse, Day 2: Day 2 from the cancer cell transplantation; for Weight of mouse, Day 3: Day 3 from the cancer cell transplantation; for Weight of mouse, Day 4: Day 4 from the cancer cell transplantation; for Weight of mouse, Day 5: Day 5 from the cancer cell transplantation; for Weight of mouse, Day 6: Day 6 from the cancer cell transplantation; for Weight of mouse, Day 7: Day 7 from the cancer cell transplantation; for Weight of mouse, Day 8: Day 8 from the cancer cell transplantation
Protocol: (§1) Each group includes 5 mice. After 24 hours from the transplantation, each test compound of formulae (1a) and (1b) was dissolved in 4% Tween 80 and injected peritoneally in the amount of 0.2 ml and in a concentration of 0.06 mmole/kg/day (that is, 0.06 mmole of each test compound was dissolved in 10 ml of 4% Tween 80, and then 0.2 ml of the resulting solution was peritoneally injected into a mouse). Only 4% Tween 80 was injected for the negative control group, and the same moles of etoposide (36 mg/kg) was injected for the positive control group. The injection was performed five times at 1, 2, 4, 7 and 8 days from the transplantation of cancer.
As an index of toxicity, the weight change during the period of drug administration was recorded for the compounds of formulae (1a) and (1b) compared with the comparison compound of Etoposide.

A549 cell = assay: Cytotoxicity test (SRB method) for A549 cells; format: cell-based, human; conditions: for EC50: A549 human lung cancer cell, SRB, 48 hours incubation, read-out: ED50(nM) for A549
Excerpt: Human lung carcinomas A549 and […] were used for determining cytotoxicity of the compounds of the present invention according to the Sulfrhodamine-B (SRB) method which was developed by NCI in 1989 in order to determine in vitro anticancer activity of drugs.
Cells to be used in the experiment were separated from a surface using 0.5% Trypsin-EDTA solution and suspended in a density of 5×10^4 cell/ml therein. The cell suspension was introduced into a 96-well plate in an amount of 180/well and incubated for 24 hours in a 5% CO2 incubator of 37° C. Samples were dissolved in dimethylsulfoxide and then diluted by water distilled in advance for three times just before the experiment. Forty-one (41) samples were prepared into 4 types of final concentrations, i.e., 0.1, 0.03, 0.01 and 0.003 mg per ml of the medium. The diluted sample solutions were added to the 96-well plate in the amount of 20 μl/well and incubated for 48 hours in a CO2 incubator of 37° C. At the time of adding the samples, Tz (Time zero) plate was taken. The medium was removed from the Tz plate and each of the plates after incubation were completed. Ten (10)% […] (TCA) was added in the amount of […], and allowed to stand for 1 hour at 4° C. to fix the cells on the bottom surface of the plate. After the cells were fixed, the plate was washed five to six times with water to completely remove the remaining TCA solution and then dried at room temperature to completely remove the moisture. To the fully dried plate was introduced a dye solution in the amount of […] in which 0.4% SRB was dissolved in 1% acetic acid solution. […] After the dyeing process, the plate was dried again at room temperature. 100 ml of 10 mM Tris solution was added thereto in order to dissolve the dye, and then O.D. (optical density) was determined by microplate reader at 520 nm.
ED50 values for cancer cells were calculated as follows. The amount of SRB protein was analyzed at the time when incubation started by the addition of the sample. This amount was named time zero (Tz). The O.D. value obtained from a group which was not treated by the sample was named Control group (C) and the O.D. value obtained from a group which was treated by the sample was named Test group (T).
The degree of cytotoxicity of the compounds was calculated from Tz, C and T values according to the following equation.
That is, in the case of Tz≧T, the degree was calculated by
(T−Tz)/(C−Tz)×100(%), and
• in the case of Tz<T, the degree was calculated by […].
From the values thus obtained, ED50 value which is defined as the concentration at which growth of the cancer cell is inhibited by 50% was calculated using the regression function of Excel program.

[2] = test system: Lewis Lung Cancer Cell (LLC); assay: Anti-cancer test for BDF1 mouse transplanted by Lewis Lung Cancer Cell, Experiment 2-1 (formulae 1a, 1b); format: in vivo; conditions: peritoneal injection 0.06 mmole/kg/day at days 1, 2, 4, 7, 8 (etoposide 36 mg/kg), cancer volume at 14 to 16 days
Excerpt: In order to evaluate the anti-cancer activity of the compounds of the present invention, LLC, which is a lung cancer cell of mouse, was transplanted into the hypodermic region of BDF1 mouse to induce a solid cancer. […] Experiment for the compounds of formulae (1a) and (1b) and that for the compound of formula (1c) were separately carried out.
Male BDF1 mouse (Weight 18 to 25 g), being in good health and purchased from Korea Biolink Co., was used as a test animal.
The mice were bred at a place controlled to the temperature of 23 to 24° C. while provided with water and feed ad libitum. As the feed, feed for mouse containing no antibiotics was used. The hypodermic tissue of C57BL/6 mouse, which includes cells cultured therein for 14 days, was taken up. Sterilized cold physiological saline was added to the tissue in the amount of 5 ml/g tissue to make a cell suspension. This cell suspension of 0.2 ml was transplanted into the hypodermic region of armpit of BDF1 mouse.
as §1
The anti-cancer effect was determined by measuring the volume of cancer of the control and test groups at 14 to 16 days from the administration of drugs and then calculated as follows. Volume of Cancer(mm^3)=Length(mm)×Width^2(mm^2)/2 Suppression Rate of Cancer Growth(%)=(C−T)×100(%)/C in which • C represents the average volume of cancer (mm^3) of the control group, and • T represents the average volume of cancer (mm^3) of the test group.

Compound | Weight of mouse, Day 1 [1] [g] | Weight of mouse, Day 2 [1] [g] | Weight of mouse, Day 3 [1] [g] | Weight of mouse, Day 4 [1] [g] | Weight of mouse, Day 5 [1] [g] | Weight of mouse, Day 6 [1] [g] | Weight of mouse, Day 7 [1] [g] | Weight of mouse, Day 8 [1] [g] | cytotoxicity compared with DPT (A549 cell; A549, in words) | EC50 (A549 cell) [nM] | Suppression Rate for LLC [2] | weight loss ([1]; compared with the control group, 8 days)
COc1cc(C2c3cc4c(cc3CC3COC(=O)C32)OCO4)cc(OC)c1OC(=O)C(N)CC(C)C (centres unmarked) [Compound 1a-2, 4′-demethyl-4′-O-leucinoyl-1-deoxypodophyllotoxin] | 23.3 | 24.3 | 25 | 26.1 | 26 | 25 | 25.3 | 26.1 | stronger cytotoxicity than DPT | 68 | 88% | –
COc1cc(C2c3cc4c(cc3CC3COC(=O)C32)OCO4)cc(OC)c1OC(=O)CCN (centres unmarked) [Compound 1a-10, 4′-demethyl-4′-O-(3-aminopropanoyl)-1-deoxypodophyllotoxin] | 22.9 | 24.1 | 25 | 25.1 | 25.5 | 25.3 | 25 | 25.3 | – | 96.7 | 78% | –
COc1cc(C2c3cc4c(cc3CC3COC(=O)C32)OCO4)cc(OC)c1OC(=O)CCCN (centres unmarked) [Compound 1a-11, 4′-demethyl-4′-O-(4-aminobutanoyl)-1-deoxypodophyllotoxin] | 22.8 | 24 | 24.2 | 25 | 24.4 | 25.4 | 25.4 | 25.5 | – | 91.6 | 82% | –
COc1cc(C2c3cc4c(cc3CC3COC(=O)C32)OCO4)cc(OC)c1OC(=O)CCCCN (centres unmarked) [Compound 1a-12, 4′-demethyl-4′-O-(5-aminopentanoyl)-1-deoxypodophyllotoxin] | 22.8 | 24.2 | 25 | 25.4 | 24.8 | 26 | 25.8 | 26.2 | – | 90.3 | 82% | –
COc1cc(C2c3cc4c(cc3CC3COC(=O)C32)OCO4)cc(OC)c1OC(=O)CCCCCN (centres unmarked) [Compound 1a-13, 4′-demethyl-4′-O-(6-aminohexanoyl)-1-deoxypodophyllotoxin] | 23 | 24.2 | 25 | 25.2 | 25 | 25.5 | 26 | 26.2 | – | 88.5 | 85% and 85.5% | –
COc1cc(C2c3cc4c(cc3CC3COC(=O)C32)OCO4)cc(OC)c1OC(=O)CCCCCCN (centres unmarked) [Compound 1a-14, 4′-demethyl-4′-O-(7-aminoheptanoyl)-1-deoxypodophyllotoxin] | 23 | 23.8 | 21.6 | 26 | 22.3 | 22.8 | 22.8 | 22.5 | – | 79.6 | 90% | about 0.5 g/mouse
